IC50 data for eight compounds are collected here from patent US20260042764A1, “COMPOSITIONS AND METHODS FOR INHIBITION OF KRAS” (TheRas, Inc., priority 2022, published 2026).

In general, pIC50 refers to the IC50 on a negative log10 scale, so that one unit is a factor of ten. Read a high pIC50 as a low IC50.

pIC50: −log10 of the molar value.

For one test, the system named is GP2d cells (KRAS G12D). Nature of the test: Cell-based pERK HTRF assay in GP2d cell (Biological Example 2). Particulars: GP2d (KRAS G12D) cells. The gist of the method:
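GP2d (KRAS G12D) cells were plated in DMEM/10% FBS and treated the next day for 60 min with compounds. Dosing used 9-point half-log series starting at 1 μM or 100 nM in 0.25% DMSO. Lysates were read by HTRF pERK (d2/Eu cryptate antibodies) after 4–24 h at room temperature, with excitation at 320 nm and emission at 615 nm.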

Test [1] deals with T1, Avi-KRAS G12D (2-169) GTP/RAF1 RBD-3xFLAG (51-131) (Homo sapiens, UniProt P01116, G12D).
T1 construct: Avi-KRAS G12D (2-169)
Description: Raf1-KRAS G12D-GTP disruption HTRF assay (Biological Example 3). The format is binding. Particulars: KRAS G12D, GTP-loaded. In a few lines: (§1)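 HTRF PPI read-out (ex 320 nm, em 615 nm) after 1 h RT incubation with shaking; data as % activity vs DMSO (100%), IC50 from curve fit. Complex 50 nM, RBD reagent 75 nM; compound 30-0.005 μM, 3-fold.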
For orientation: TR-FRET usually uses a lanthanide donor and a delayed reading to cut background.

For test [2], the target named is T2, Avi-KRAS G12C (2-169) GTP/RAF1 RBD-3xFLAG (51-131) (Homo sapiens, UniProt P01116, G12C).
T2 construct: Avi-KRAS G12C (2-169)
Description: Raf1-KRAS G12C-GTP disruption HTRF assay (Biological Example 3). In kind it is binding. Particulars: KRAS G12C, GTP-loaded. The gist of the method:
as §1

For test [3], the target named is T3, Avi-KRAS G12V (2-169) GTP/RAF1 RBD-3xFLAG (51-131) (Homo sapiens, UniProt P01116, G12V).
T3 construct: Avi-KRAS G12V (2-169)
Nature of the test: Raf1-KRAS G12V-GTP disruption HTRF assay (Biological Example 3). In kind it is binding. Particulars: KRAS G12V, GTP-loaded. The gist of the method: as §1

Test [4] has as its target T4, Avi-KRAS WT (2-169) GTP/RAF1 RBD-3xFLAG (51-131) (Homo sapiens, UniProt P01116).
T4 construct: Avi-KRAS WT (2-169)
Nature of the test: Raf1-KRAS WT-GTP disruption HTRF assay (Biological Example 3). Conditions: KRAS WT, GTP-loaded. The format is binding. The gist of the method:
as §1

In the next test the test system is SW620 cells (KRAS G12V). Description: Cell-based pERK HTRF assay in SW620 cell (Biological Example 4). In a few lines:
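SW620 cells were treated for 4 h with compound in a 9-point half-log series from 1 μM top (0.25% DMSO), then lysed. Phospho-ERK was detected by HTRF with d2 and Eu cryptate antibodies after 4–24 h at room temperature, read at 615 nm emission.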

Setting [5] is: Homo sapiens, SW-620, SW620 (KRAS G12V) cells.

T3 sequence (P01116 2-169 isoform P01116-2 G12V): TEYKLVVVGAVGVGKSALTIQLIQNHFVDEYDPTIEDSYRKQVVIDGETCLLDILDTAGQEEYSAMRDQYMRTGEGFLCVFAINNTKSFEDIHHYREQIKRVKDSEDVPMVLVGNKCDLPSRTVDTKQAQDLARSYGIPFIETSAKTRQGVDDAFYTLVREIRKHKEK
T1 sequence (P01116 2-169 isoform P01116-2 G12D): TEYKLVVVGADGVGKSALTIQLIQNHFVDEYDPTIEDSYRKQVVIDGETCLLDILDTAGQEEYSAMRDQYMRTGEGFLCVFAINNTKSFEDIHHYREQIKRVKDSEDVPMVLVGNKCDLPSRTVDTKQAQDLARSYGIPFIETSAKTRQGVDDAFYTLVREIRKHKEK
T4 sequence (P01116 2-169 isoform P01116-2): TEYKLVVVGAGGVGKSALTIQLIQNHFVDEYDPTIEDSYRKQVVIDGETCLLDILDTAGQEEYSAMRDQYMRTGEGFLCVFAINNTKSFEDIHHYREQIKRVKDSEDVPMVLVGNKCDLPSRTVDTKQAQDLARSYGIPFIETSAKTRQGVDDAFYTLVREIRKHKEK
T2 sequence (P01116 2-169 isoform P01116-2 G12C): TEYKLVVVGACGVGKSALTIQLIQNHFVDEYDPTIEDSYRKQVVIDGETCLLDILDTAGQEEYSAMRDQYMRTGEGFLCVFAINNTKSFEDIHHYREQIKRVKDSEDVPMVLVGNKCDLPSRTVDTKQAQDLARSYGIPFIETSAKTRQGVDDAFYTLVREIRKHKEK

As for `CCN(c1nc(OC[C@@]23CCCN2C[C@H](F)C3)nc2c(F)c(-c3ccc(F)c4sc(N)c(C#N)c34)c(C(F)(F)F)cc12)[C@H]1C[C@H]2CN(CC(F)(F)F)C(=O)N2C1` (atropisomer, axis not shown) [Compound 951], the pIC50 in the test on GP2d cells (KRAS G12D) (GP2d) is above 7.00; in test [1], 6.00 to 7.00; in test [2], 6.00 to 7.00; in test [3], 6.00 to 7.00; in test [4] it was 6.00 to 7.00; in the test with SW620 cells (KRAS G12V) (setting [5]), above 7.00.
Consider `CCN(c1nc(OC[C@@]23CCCN2C[C@H](F)C3)nc2c(F)c(-c3ccc(F)c4sc(N)c(C#N)c34)c(C(F)(F)F)cc12)[C@H]1CCN(C(=O)c2ccc(C#N)s2)C1` (atropisomer, axis not shown) [Compound 952], for which the pIC50 is above 7.00 in the test on GP2d cells (KRAS G12D) (GP2d); 6.00 to 7.00 in test [1]; 6.00 to 7.00 in test [2]; 6.00 to 7.00 in test [3]; 5.00 to 6.00 in test [4]; above 7.00 with SW620 cells (KRAS G12V) (setting [5]).
`CN(Cc1ncoc1C#N)c1nc(OC[C@@]23CCCN2C[C@H](F)C3)nc2c(F)c(-c3ccc(F)c4sc(N)c(C#N)c34)c(C(F)(F)F)cc12` (atropisomer, axis not shown) [Compound 953]: the pIC50 in the test with GP2d cells (KRAS G12D) (GP2d) is above 7.00; in test [1] it was 6.00 to 7.00; in test [2] it was 5.00 to 6.00; in test [3], 5.00 to 6.00; in test [4] it was 5.00 to 6.00; in the test on SW620 cells (KRAS G12V) (setting [5]), 6.00 to 7.00.
Regarding `CCN(c1nc(OC[C@]23CCCN2C[C@H](F)C3)nc2c(F)c(-c3ccc(F)c4sc(N)c(C#N)c34)c(C(F)(F)F)cc12)[C@H]1CCN(C(=O)OC)C1` (atropisomer, axis not shown) [Compound 954], the pIC50 is above 7.00 with GP2d cells (KRAS G12D) (GP2d); at least 7.00 in test [1]; 6.00 to 7.00 in test [2]; 6.00 to 7.00 in test [3]; 6.00 to 7.00 in test [4]; above 7.00 in the test on SW620 cells (KRAS G12V) (setting [5]).
For the compound `CCN(c1nc(OC[C@]23CCCN2C[C@H](F)C3)nc2c(F)c(-c3ccc(F)c4sc(N)c(C#N)c34)c(C(F)(F)F)cc12)[C@H]1CCN(C(=O)OC)C1` (atropisomer, axis not shown) [Compound 955], the pIC50 with GP2d cells (KRAS G12D) is above 7.00; in test [1], 5.00 to 6.00; in test [2] it was below 5.00; in test [3], below 5.00; in test [4] it was below 5.00; in the test on SW620 cells (KRAS G12V) (SW620 (KRAS G12V) cells), 6.00 to 7.00.
Turning to `CCN(c1nc(OC[C@@]23CCCN2C[C@H](F)C3)nc2c(F)c(-c3ccc(F)c4sc(N)c(C#N)c34)c(C(F)(F)F)cc12)[C@H]1CCN(C(=O)c2ncc(C#N)s2)C1` (atropisomer, axis not shown) [Compound 956], the negative-log IC50 (pIC50) in the test on GP2d cells (KRAS G12D) (GP2d) was above 7.00; in test [1], 6.00 to 7.00; in test [2], 6.00 to 7.00; in test [3], 6.00 to 7.00; in test [4], 5.00 to 6.00; in the test on SW620 cells (KRAS G12V) (setting [5]), above 7.00.
For `CCN(c1nc(OC[C@@]23CCCN2C[C@H](F)C3)nc2c(F)c(-c3ccc(F)c4sc(N)c(C#N)c34)c(C(F)(F)F)cc12)[C@H]1C[C@@H](C(=O)N(C)C)C1` (atropisomer, axis not shown) [Compound 957], the pIC50 is above 7.00 with GP2d cells (KRAS G12D); 6.00 to 7.00 in test [1]; 5.00 to 6.00 in test [2]; 5.00 to 6.00 in test [3]; 5.00 to 6.00 in test [4]; above 7.00 with SW620 cells (KRAS G12V) (SW620 (KRAS G12V) cells).
As for `CCN(c1nc(OC[C@@]23CCCN2C[C@H](F)C3)nc2c(F)c(-c3ccc(F)c4sc(N)c(C#N)c34)c(C(F)(F)F)cc12)[C@H]1C[C@H]2CN(C3COC3)C(=O)N2C1` (atropisomer, axis not shown) [Compound 958], the pIC50 in the test with GP2d cells (KRAS G12D) (GP2d) was above 7.00; in test [1], 6.00 to 7.00; in test [2] it was 6.00 to 7.00; in test [3], 6.00 to 7.00; in test [4], 6.00 to 7.00; with SW620 cells (KRAS G12V) (setting [5]), above 7.00.
